US20100267561A1, “HERBICIDAL PYRIDAZINONE DERIVATIVES” (priority 2007, published 2010)

How the values were obtained:
Type in all cases: in vivo
[1] = system: winter barley (Hordeum vulgare); experiment: Test B postemergence plant response; conditions: for Plant response rating, Barley: Postemergence; for Barley plant response rating: postemergence
Procedure, shortened: (§1)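 Postemergence spray on 1- to 4-leaf plants (2–18 cm); greenhouse 13–15 d; visual rating vs controls, 0 = no effect, 100 = complete control; dash = not tested.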

[2] = system: chickweed (Stellaria media); experiment: Test B postemergence plant response; conditions: for Plant response rating, Chickweed: Postemergence; for Chickweed plant response rating: postemergence, 0-100 scale
Procedure, shortened: as §1

[3] = system: windgrass (Apera spica-venti); experiment: Test B postemergence plant response; conditions: for Plant response rating, Windgrass: Postemergence; for Windgrass plant response rating: postemergence, 0-100 scale
Procedure, shortened: as §1

[4] = system: canarygrass (Phalaris minor); experiment: Test B postemergence plant response; conditions: for Plant response rating, Canarygrass: Postemergence
Procedure, shortened: as §1

[5] = system: velvetleaf (Abutilon theophrasti); experiment: Test A pre-/postemergence plant response
Procedure, shortened: (§2)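 Ratings are visual, 0–100, where 100 means complete control and 0 no effect, taken roughly 10 days after treatment by comparison with untreated controls. Formulation: non-phytotoxic solvent mixture with surfactant.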

[6] = system: giant foxtail (Setaria faberi); experiment: Test A pre-/postemergence plant response
Procedure, shortened: as §2

[7] = system: morningglory (Ipomoea coccinea); experiment: Test A pre-/postemergence plant response
Procedure, shortened: as §2

[8] = system: pigweed (Amaranthus retroflexus); experiment: Test A pre-/postemergence plant response
Procedure, shortened: as §2

[9] = system: corn (Zea mays); experiment: Test A pre-/postemergence plant response
Procedure, shortened: as §2

[10] = system: wheat (Triticum aestivum); experiment: Test A pre-/postemergence plant response
Procedure, shortened: as §2

[11] = system: large crabgrass (Digitaria sanguinalis); experiment: Test A pre-/postemergence plant response
Procedure, shortened: as §2

[12] = system: barnyardgrass (Echinochloa crus-galli); experiment: Test A pre-/postemergence plant response
Procedure, shortened: as §2

[13] = 31 g ai/ha, scale 0 to 100, 0 no effect, 100 complete control
[14] = Postemergence, 125 g ai/ha, 0 to 100 scale, 0 no effect, 100 complete control
[15] = Postemergence, 500 g ai/ha, 0 to 100 scale, 0 no effect, 100 complete control
[16] = Preemergence, 125 g ai/ha, 0 to 100 scale (0 no effect, 100 complete control)
[17] = Preemergence, 500 g ai/ha, 0 to 100 scale (0 no effect, 100 complete control)
[18] = 62 g ai/ha, scale 0 to 100, 0 no effect, 100 complete control
[19] = Postemergence, 31 g ai/ha, 0 to 100 scale, 0 no effect, 100 complete control
[20] = Preemergence, 31 g ai/ha, 0 to 100 scale, 0 is no effect, 100 is complete control

Compound: 5-[3-(4-chlorophenyl)-5-methyl-1H-pyrazol-1-yl]-1,6-dihydro-1-methyl-6-oxo-4-pyridazinyl-1-methylethyl carbonate [Compound 7]
- Plant response rating, Barley ([1]; 62 g ai/ha, scale 0 to 100): 0
- Plant response rating, Barley ([1]; 125 g ai/ha, scale 0 to 100): 0
- Plant response rating, Barley ([1]; 250 g ai/ha, scale 0 to 100): 0
- Plant response rating, Chickweed [2, 13]: 0
- Plant response rating, Chickweed ([2]; 62 g ai/ha, scale 0 to 100): 0
- Plant response rating, Chickweed ([2]; 125 g ai/ha, scale 0 to 100): 0
- Plant response rating, Chickweed ([2]; 250 g ai/ha, scale 0 to 100): 0
- Plant response rating, Windgrass [3, 13]: 80
- Plant response rating, Windgrass ([3]; 62 g ai/ha, scale 0 to 100): 85
- Plant response rating, Windgrass ([3]; 125 g ai/ha, scale 0 to 100): 100
- Plant response rating, Windgrass ([3]; 250 g ai/ha, scale 0 to 100): 100
- Plant response rating, Canarygrass [4, 13]: 90
- Plant response rating, Canarygrass ([4]; 125 g ai/ha, scale 0 to 100): 90
- Plant response rating, Canarygrass ([4]; 250 g ai/ha, scale 0 to 100): 90
- Plant response rating, Velvetleaf [5, 14]: 20
- Plant response rating, Velvetleaf [5, 15]: 40
- Plant response rating, Velvetleaf [5, 16]: 0
- Plant response rating, Velvetleaf [5, 17]: 30
- Plant response rating, Foxtail, Giant [6, 14]: 90
- Plant response rating, Foxtail, Giant [6, 15]: 90
- Plant response rating, Foxtail, Giant [6, 16]: 100
- Plant response rating, Foxtail, Giant [6, 17]: 100
- Plant response rating, Morningglory [7, 14]: 0
- Plant response rating, Morningglory [7, 15]: 20
- Plant response rating, Morningglory [7, 16]: 20
- Plant response rating, Morningglory [7, 17]: 20
- Plant response rating, Pigweed [8, 14]: 0
- Plant response rating, Pigweed [8, 15]: 0
- Plant response rating, Pigweed [8, 16]: 0
- Plant response rating, Pigweed [8, 17]: 0
- Plant response rating, Corn [9, 14]: 50
- Plant response rating, Corn [9, 15]: 100
- Plant response rating, Corn [9, 16]: 60
- Plant response rating, Corn [9, 17]: 90
- Plant response rating, Wheat [10, 14]: 40
- Plant response rating, Wheat [10, 15]: 60
- Plant response rating, Wheat [10, 16]: 60
- Plant response rating, Wheat [10, 17]: 80
- Plant response rating, Crabgrass, Large [11, 14]: 80
- Plant response rating, Crabgrass, Large [11, 15]: 90
- Plant response rating, Crabgrass, Large [11, 16]: 100
- Plant response rating, Crabgrass, Large [11, 17]: 100
- Plant response rating, Barnyardgrass [12, 14]: 80
- Plant response rating, Barnyardgrass [12, 15]: 100
- Plant response rating, Barnyardgrass [12, 16]: 100
- Plant response rating, Barnyardgrass [12, 17]: 100

Compound: Cc1cc(-c2ccc(Br)cc2)nn1-c1c(OC(=O)C2CC2)cnn(C)c1=O [Compound 5]
- Plant response rating, Barley [1, 13]: 30
- Plant response rating, Barley ([1]; 62 g ai/ha, scale 0 to 100): 90
- Plant response rating, Barley ([1]; 125 g ai/ha, scale 0 to 100): 95
- Plant response rating, Barley ([1]; 250 g ai/ha, scale 0 to 100): 95
- Plant response rating, Chickweed [2, 13]: 0
- Plant response rating, Chickweed ([2]; 62 g ai/ha, scale 0 to 100): 0
- Plant response rating, Chickweed ([2]; 125 g ai/ha, scale 0 to 100): 0
- Plant response rating, Chickweed ([2]; 250 g ai/ha, scale 0 to 100): 0
- Plant response rating, Windgrass [3, 13]: 95
- Plant response rating, Windgrass ([3]; 62 g ai/ha, scale 0 to 100): 100
- Plant response rating, Windgrass ([3]; 125 g ai/ha, scale 0 to 100): 100
- Plant response rating, Windgrass ([3]; 250 g ai/ha, scale 0 to 100): 100
- Plant response rating, Canarygrass [4, 13]: 80
- Plant response rating, Canarygrass ([4]; 62 g ai/ha, scale 0 to 100): 100
- Plant response rating, Canarygrass ([4]; 125 g ai/ha, scale 0 to 100): 100
- Plant response rating, Canarygrass ([4]; 250 g ai/ha, scale 0 to 100): 100
- Plant response rating, Velvetleaf [5, 14]: 20
- Plant response rating, Velvetleaf [5, 15]: 50
- Plant response rating, Velvetleaf [5, 16]: 0
- Plant response rating, Velvetleaf [5, 17]: 20
- Plant response rating, Foxtail, Giant [6, 14]: 100
- Plant response rating, Foxtail, Giant [6, 15]: 100
- Plant response rating, Foxtail, Giant [6, 16]: 100
- Plant response rating, Foxtail, Giant [6, 17]: 100
- Plant response rating, Morningglory [7, 14]: 0
- Plant response rating, Morningglory [7, 15]: 0
- Plant response rating, Morningglory [7, 16]: 0
- Plant response rating, Morningglory [7, 17]: 0
- Plant response rating, Pigweed [8, 14]: 0
- Plant response rating, Pigweed [8, 15]: 0
- Plant response rating, Pigweed [8, 16]: 0
- Plant response rating, Pigweed [8, 17]: 0
- Plant response rating, Corn [9, 14]: 100
- Plant response rating, Corn [9, 15]: 100
- Plant response rating, Corn [9, 16]: 80
- Plant response rating, Corn [9, 17]: 90
- Plant response rating, Wheat [10, 14]: 60
- Plant response rating, Wheat [10, 15]: 70
- Plant response rating, Wheat [10, 16]: 90
- Plant response rating, Wheat [10, 17]: 100
- Plant response rating, Crabgrass, Large [11, 14]: 100
- Plant response rating, Crabgrass, Large [11, 15]: 100
- Plant response rating, Crabgrass, Large [11, 16]: 100
- Plant response rating, Crabgrass, Large [11, 17]: 100
- Plant response rating, Barnyardgrass [12, 14]: 100
- Plant response rating, Barnyardgrass [12, 15]: 100
- Plant response rating, Barnyardgrass [12, 16]: 90
- Plant response rating, Barnyardgrass [12, 17]: 100

Compound: CCc1c(C)c(-c2ccc(Br)cc2)nn1-c1c(O)cnn(C)c1=O [Compound 83]
- Barley plant response rating ([1]; 8 g ai/ha, 0-100 scale): 0
- Barley plant response rating ([1]; 16 g ai/ha, 0-100 scale (0 no effect, 100 complete control)): 0
- Plant response rating, Barley [1, 13]: 45
- Plant response rating, Barley [1, 18]: 45
- Chickweed plant response rating ([2]; 8 g ai/ha): 0
- Chickweed plant response rating ([2]; 16 g ai/ha): 0
- Plant response rating, Chickweed ([2]; 31 g ai/ha, scale 0 to 100): 0
- Plant response rating, Chickweed [2, 18]: 0
- Windgrass plant response rating ([3]; 8 g ai/ha): 90
- Windgrass plant response rating ([3]; 16 g ai/ha): 98
- Plant response rating, Windgrass ([3]; 31 g ai/ha, scale 0 to 100): 100
- Plant response rating, Windgrass [3, 18]: 100
- Canarygrass plant response rating ([4]; 8 g ai/ha, postemergence, 0-100 scale): 65
- Plant response rating, Canarygrass ([4]; 31 g ai/ha, scale 0 to 100): 90
- Plant response rating, Canarygrass [4, 18]: 90
- Plant response rating, Foxtail, Giant [6, 19]: 90
- Plant response rating, Foxtail, Giant [6, 14]: 100
- Plant response rating, Foxtail, Giant [6, 20]: 0
- Plant response rating, Foxtail, Giant [6, 16]: 100
- Plant response rating, Pigweed [8, 19]: 0
- Plant response rating, Pigweed [8, 14]: 0
- Plant response rating, Pigweed [8, 20]: 0
- Plant response rating, Pigweed [8, 16]: 30
- Plant response rating, Corn [9, 19]: 0
- Plant response rating, Corn [9, 14]: 100
- Plant response rating, Corn [9, 20]: 0
- Plant response rating, Corn [9, 16]: 40
- Plant response rating, Wheat [10, 19]: 0
- Plant response rating, Wheat [10, 14]: 60
- Plant response rating, Wheat [10, 20]: 0
- Plant response rating, Wheat [10, 16]: 30
- Plant response rating, Crabgrass, Large [11, 19]: 60
- Plant response rating, Crabgrass, Large [11, 14]: 100
- Plant response rating, Crabgrass, Large [11, 20]: 0
- Plant response rating, Crabgrass, Large [11, 16]: 70
- Plant response rating, Barnyardgrass [12, 19]: 100
- Plant response rating, Barnyardgrass [12, 14]: 100
- Plant response rating, Barnyardgrass [12, 20]: 20
- Plant response rating, Barnyardgrass [12, 16]: 100
